Measurements from patent US10072011B2, “Substituted bridged urea analogs as sirtuin modulators” (GlaxoSmithKline Intellectual Property (No.2) Limited, priority 2014, dated 2018).
Like-named read-outs stand apart in the source and are kept apart here.

Target: T1, SIRT1 (Homo sapiens, UniProt Q96EB6)
T1 sequence (Q96EB6 1-747): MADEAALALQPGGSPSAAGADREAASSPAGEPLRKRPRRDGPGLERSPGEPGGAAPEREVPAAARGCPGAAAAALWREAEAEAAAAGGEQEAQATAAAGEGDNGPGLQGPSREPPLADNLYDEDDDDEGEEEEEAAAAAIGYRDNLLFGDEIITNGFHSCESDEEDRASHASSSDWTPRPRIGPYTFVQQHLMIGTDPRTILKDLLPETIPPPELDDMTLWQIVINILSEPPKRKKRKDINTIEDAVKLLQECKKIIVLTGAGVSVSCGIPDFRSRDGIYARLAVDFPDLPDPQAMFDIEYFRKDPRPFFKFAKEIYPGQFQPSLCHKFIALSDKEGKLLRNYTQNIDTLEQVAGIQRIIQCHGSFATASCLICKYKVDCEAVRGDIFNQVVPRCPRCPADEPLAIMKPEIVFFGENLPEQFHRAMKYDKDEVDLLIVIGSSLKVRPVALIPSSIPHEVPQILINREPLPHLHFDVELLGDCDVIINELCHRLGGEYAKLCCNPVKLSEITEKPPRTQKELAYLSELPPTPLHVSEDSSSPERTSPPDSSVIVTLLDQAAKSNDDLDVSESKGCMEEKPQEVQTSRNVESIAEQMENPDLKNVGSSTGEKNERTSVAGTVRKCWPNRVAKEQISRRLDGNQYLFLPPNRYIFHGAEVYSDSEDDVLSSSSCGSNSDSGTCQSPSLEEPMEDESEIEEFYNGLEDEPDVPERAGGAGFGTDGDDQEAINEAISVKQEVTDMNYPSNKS
Assay: Trp mass spectrometry assay of SIRT1 activation (Ac-R-H-K-K(Ac)-W-NH2 peptide)
Format: biochemical
Details: for Emax: 25 min, read-out: TRP MAX RESP (percent maximum fold activation)
In short: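 Mass spectrometry read-out (OAADPR formed, or deacetylated Trp peptide) after a 25 min NAD-dependent deacetylation by E. coli-expressed His-SIRT1, stopped with formic acid.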

[1] = Trp peptide 0.5 μM, 120 μM βNAD+, 10 nM SIRT1, 25 min at 25° C.
[2] = Trp peptide 0.5 μM, 120 μM βNAD+, 10 nM SIRT1, 25 min at 25° C., relative to control (100%)

Compound | Emax [%] | TRP Activity (EC1.5, concentration of test compound that results in 150% activation of SIRT1) [1] | Emax [2] [%] | TRP MAX RESP (percent maximum fold activation) [2]
O=C(NC1CCCCC1)c1ccc2c(n1)N(C(=O)Nc1ccccn1)[C@H]1CCN2C1 [Example 27, (4S)—N7-cyclohexyl-N5-(pyridin-2-yl)-3,4-dihydro-1,4-methanopyrido[2,3-b][1,4]diazepine-5,7(2H)-dicarboxamide] | > 150 | A (EC1.5<1 μM) |  | 
Cc1nc(NC(=O)N2c3nc(C(=O)N[C@H](C)C(F)(F)F)ccc3N3CC[C@H]2C3)ccc1F [Example 269, (4S)—N5-(5-fluoro-6-methylpyridin-2-yl)-N7-((R)-1,1,1-trifluoropropan-2-yl)-3,4-dihydro-1,4-methanopyrido[2,3-b][1,4]diazepine-5,7(2H)-dicarboxamide] |  | A (EC1.5<1 μM) | > 150 | 
C[C@@H](NC(=O)c1ccc2c(n1)N(C(=O)Nc1cccn(C)c1=O)[C@H]1CCN2C1)C(F)(F)F [Example 98, (4S)—N5-(1-methyl-2-oxo-1,2-dihydropyridin-3-yl)-N7-((R)-1,1,1-trifluoropropan-2-yl)-3,4-dihydro-1,4-methanopyrido[2,3-b][1,4]diazepine-5,7(2H)-dicarboxamide] |  | A (EC1.5<1 μM) | > 150 | 
C[C@@H](NC(=O)c1ccc2c(n1)N(C(=O)Nc1cc(-c3nn[nH]n3)ccn1)[C@H]1CCN2C1)C(F)(F)F [Example 308, (4S)—N5-(4-(2H-tetrazol-5-yl)pyridin-2-yl)-N7-((R)-1,1,1-trifluoropropan-2-yl)-3,4-dihydro-1,4-methanopyrido[2,3-b][1,4]diazepine-5,7(2H)-dicarboxamide] |  | A (EC1.5<1 μM) | < 150 | 
O=C(NCC(F)(F)F)c1ccc2c(n1)N(C(=O)Nc1ccc(C3CC3)cn1)[C@H]1CCN2C1 [Example 174, (4S)—N5-(5-cyclopropylpyridin-2-yl)-N7-(2,2,2-trifluoroethyl)-3,4-dihydro-1,4-methanopyrido[2,3-b][1,4]diazepine-5,7(2H)-dicarboxamide] |  | A (EC1.5<1 μM) | > 150 | 
C[C@@H](NC(=O)c1ccc2c(n1)N(C(=O)Nc1cc(C(=O)N[C@H]3CCOC3)ccn1)[C@H]1CCN2C1)C(F)(F)F [Example 264, (4S)—N5-(4-(((S)-tetrahydrofuran-3-yl)carbamoyl)pyridin-2-yl)-N7-((R)-1,1,1-trifluoropropan-2-yl)-3,4-dihydro-1,4-methanopyrido[2,3-b][1,4]diazepine-5,7(2H)-dicarboxamide] |  | C (EC1.5>25 μM) | < 150 | 
Cn1ncc2c(NC(=O)N3c4nc(C(=O)NCC(F)(F)F)ccc4N4CC[C@H]3C4)cccc21 [Example 220, (4S)—N5-(1-methyl-1H-indazol-4-yl)-N7-(2,2,2-trifluoroethyl)-3,4-dihydro-1,4-methanopyrido[2,3-b][1,4]diazepine-5,7(2H)-dicarboxamide] |  | B (EC1.5 1-25 μM) | > 150 | 
O=C(N[C@H](CO)C(F)(F)F)c1ccc2c(n1)N(C(=O)Nc1cc3c(cn1)OCCC3)[C@H]1CCN2C1 [Example 159] |  | A (EC1.5<1 μM) | > 150 | 
Cc1ccc2c(NC(=O)N3c4nc(C(=O)NC5CC5(F)F)ccc4N4CC[C@H]3C4)n[nH]c2n1 (single isomer, unassigned) [Example 221] |  | B (EC1.5 1-25 μM) |  | A (Fold activation≥150%)
C[C@@H](NC(=O)c1ccc2c(n1)N(C(=O)Nc1cc3c(cn1)OCCC3)[C@H]1CCN2C1)C(F)(F)F [Example 138, (4S)—N5-(3,4-dihydro-2H-pyrano[2,3-c]pyridin-6-yl)-N7-((R)-1,1,1-trifluoropropan-2-yl)-3,4-dihydro-1,4-methanopyrido[2,3-b][1,4]diazepine-5,7(2H)-dicarboxamide] |  | A (EC1.5<1 μM) | > 150 | 
C[C@@H](CO)NC(=O)c1ccc2c(n1)N(C(=O)Nc1ccccn1)[C@H]1CCN2C1 [Example 53, (4S)—N7-((S)-1-hydroxypropan-2-yl)-N5-(pyridin-2-yl)-3,4-dihydro-1,4-methanopyrido[2,3-b][1,4]diazepine-5,7(2H)-dicarboxamide] |  | B (EC1.5 1-25 μM) | > 150 | 
C[C@@H](NC(=O)c1ccc2c(n1)N(C(=O)Nc1cc(OCCCO)ccn1)[C@H]1CCN2C1)C(F)(F)F [Example 266, (4S)—N5-(4-(3-hydroxypropoxy)pyridin-2-yl)-N7-((R)-1,1,1-trifluoropropan-2-yl)-3,4-dihydro-1,4-methanopyrido[2,3-b][1,4]diazepine-5,7(2H)-dicarboxamide] |  | A (EC1.5<1 μM) | > 150 | 
Cc1ncc(-c2ccnc(NC(=O)N3c4nc(C(=O)N[C@H](C)C(F)(F)F)ccc4N4CC[C@H]3C4)c2)s1 [Example 148, (4S)—N5-(4-(2-methylthiazol-5-yl)pyridin-2-yl)-N7-((R)-1,1,1-trifluoropropan-2-yl)-3,4-dihydro-1,4-methanopyrido[2,3-b][1,4]diazepine-5,7(2H)-dicarboxamide] |  | A (EC1.5<1 μM) | > 150 | 
C[C@@H](NC(=O)c1ccc2c(n1)N(C(=O)Nc1cc(OC[C@@H](O)CO)ncn1)[C@H]1CCN2C1)C(F)(F)F [Example 162, (4S)—N5-(6-((S)-2,3-dihydroxypropoxy)pyrimidin-4-yl)-N7-((R)-1,1,1-trifluoropropan-2-yl)-3,4-dihydro-1,4-methanopyrido[2,3-b][1,4]diazepine-5,7(2H)-dicarboxamide] |  | A (EC1.5<1 μM) | > 150 | 
COc1ccnc(NC(=O)N2c3nc(C(=O)NCC(F)(F)F)ccc3N3CC[C@H]2C3)c1 [Example 136, (4S)—N5-(4-methoxypyridin-2-yl)-N7-(2,2,2-trifluoroethyl)-3,4-dihydro-1,4-methanopyrido[2,3-b][1,4]diazepine-5,7(2H)-dicarboxamide] |  | A (EC1.5<1 μM) | > 150 | 
C[C@@H](NC(=O)c1ccc2c(n1)N(C(=O)Nc1ccsn1)[C@H]1CCN2C1)C(F)(F)F [Example 190, (4S)—N5-(isothiazol-3-yl)-N7-((R)-1,1,1-trifluoropropan-2-yl)-3,4-dihydro-1,4-methanopyrido[2,3-b][1,4]diazepine-5,7(2H)-dicarboxamide] |  | A (EC1.5<1 μM) | > 150 | 
CN(C)NC(=O)c1ccc2c(n1)N(C(=O)Nc1ccccn1)[C@H]1CCN2C1 [Example 201, (4S)-7-(2,2-dimethylhydrazinecarbonyl)-N-(pyridin-2-yl)-3,4-dihydro-1,4-methanopyrido[2,3-b][1,4]diazepine-5(2H)-carboxamide] | > 150 | B (EC1.5 1-25 μM) |  | 
C[C@@H](NC(=O)c1ccc2c(n1)N(C(=O)Nc1cc(-c3ncn[nH]3)ccn1)[C@H]1CCN2C1)C(F)(F)F [Example 322, (4S)—N5-(4-(1H-1,2,4-triazol-5-yl)pyridin-2-yl)-N7-((R)-1,1,1-trifluoropropan-2-yl)-3,4-dihydro-1,4-methanopyrido[2,3-b][1,4]diazepine-5,7(2H)-dicarboxamide] |  | A (EC1.5<1 μM) | < 150 | 
O=C(NC[C@H]1CCCO1)c1ccc2c(n1)N(C(=O)Nc1ccccn1)[C@H]1CCN2C1 [Example 42, (4S)—N5-(pyridin-2-yl)-N7-(((R)-tetrahydrofuran-2-yl)methyl)-3,4-dihydro-1,4-methanopyrido[2,3-b][1,4]diazepine-5,7(2H)-dicarboxamide] |  | B (EC1.5 1-25 μM) | > 150 | 
C[Si](C)(C)CNC(=O)c1ccc2c(n1)N(C(=O)Nc1ccccn1)[C@H]1CCN2C1 [Example 108, (4S)—N5-(pyridin-2-yl)-N7-((trimethylsilyl)methyl)-3,4-dihydro-1,4-methanopyrido[2,3-b][1,4]diazepine-5,7(2H)-dicarboxamide] |  | A (EC1.5<1 μM) | > 150 | 
